The source made the active and inactive calls.
Tests used:
[1] = molecular target: Voltage-gated inwardly rectifying potassium channel KCNH2 (Homo sapiens, UniProt Q12809); conditions: Potency;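 note: confirmatory quantitative high-throughput screen measuring inhibition of hERG channel activity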
[2] = molecular target: T1, Type-1 angiotensin II receptor (Homo sapiens, UniProt P30556); experiment: antagonism of angiotensin II type 1 receptor – cell-based, uHTS hits, selectivity assay for APJ receptor antagonist project, dose response (AID 463214); format: functional;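 note: antagonist potency against angiotensin II stimulated AT1 response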
T1 sequence (P30556 whole entry): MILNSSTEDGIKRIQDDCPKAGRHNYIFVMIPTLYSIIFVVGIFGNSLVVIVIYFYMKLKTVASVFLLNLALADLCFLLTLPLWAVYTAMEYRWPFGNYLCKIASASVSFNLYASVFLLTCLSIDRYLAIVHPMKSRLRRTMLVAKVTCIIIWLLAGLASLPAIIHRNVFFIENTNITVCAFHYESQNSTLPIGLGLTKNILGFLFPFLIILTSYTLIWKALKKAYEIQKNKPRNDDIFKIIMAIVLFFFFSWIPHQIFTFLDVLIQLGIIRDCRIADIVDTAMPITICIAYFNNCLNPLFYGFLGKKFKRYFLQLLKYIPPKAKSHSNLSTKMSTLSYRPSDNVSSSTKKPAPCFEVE

cells [3] = format: functional, cell-based
Beta-galactosidase = Beta-galactosidase (Escherichia coli, UniProt Q8VNN2); experiment: PubChem AID 485352; format: functional
Chain of Beta-galactosidase (Q8VNN2 whole entry): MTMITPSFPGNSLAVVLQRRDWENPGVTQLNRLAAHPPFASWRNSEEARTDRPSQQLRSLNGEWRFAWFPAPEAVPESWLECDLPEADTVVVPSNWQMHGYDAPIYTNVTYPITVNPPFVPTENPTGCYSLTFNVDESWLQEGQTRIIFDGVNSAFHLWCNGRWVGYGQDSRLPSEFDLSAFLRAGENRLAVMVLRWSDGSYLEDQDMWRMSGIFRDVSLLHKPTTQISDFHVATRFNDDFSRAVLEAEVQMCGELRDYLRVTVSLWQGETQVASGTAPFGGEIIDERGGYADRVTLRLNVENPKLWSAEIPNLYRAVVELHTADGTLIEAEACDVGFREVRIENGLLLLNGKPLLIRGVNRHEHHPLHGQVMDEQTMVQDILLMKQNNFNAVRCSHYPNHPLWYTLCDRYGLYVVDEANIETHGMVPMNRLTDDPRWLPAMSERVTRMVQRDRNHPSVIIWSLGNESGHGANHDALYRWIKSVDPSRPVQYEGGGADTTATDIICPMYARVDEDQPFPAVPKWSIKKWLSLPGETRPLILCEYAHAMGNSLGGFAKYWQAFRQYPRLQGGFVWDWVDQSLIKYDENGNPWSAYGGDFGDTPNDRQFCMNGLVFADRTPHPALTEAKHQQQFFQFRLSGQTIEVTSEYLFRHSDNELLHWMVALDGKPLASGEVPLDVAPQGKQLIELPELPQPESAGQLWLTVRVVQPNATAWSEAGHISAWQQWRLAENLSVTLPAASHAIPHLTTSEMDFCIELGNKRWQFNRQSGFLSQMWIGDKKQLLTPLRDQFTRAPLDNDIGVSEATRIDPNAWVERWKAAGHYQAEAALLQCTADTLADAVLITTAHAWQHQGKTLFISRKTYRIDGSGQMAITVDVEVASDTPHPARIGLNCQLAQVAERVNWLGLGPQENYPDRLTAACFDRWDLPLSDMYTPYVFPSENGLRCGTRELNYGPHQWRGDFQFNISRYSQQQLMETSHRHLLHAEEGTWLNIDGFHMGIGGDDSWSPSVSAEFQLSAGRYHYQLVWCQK

INS1 = experiment: INS-1E survival protection against cytokine death – cell-based, luminescence, retest, dose response (AID 449756); format: functional; conditions: Rattus norvegicus;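 note: cell death triggered by IL-1 beta plus TNF-alpha plus IFN-gamma mixture; protective hits raise ATP signal compared with cytokine alone wells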
cells [4] = format: functional, cell-based; remark: listed apart in the source
Cytochrome P450 2C9 = Cytochrome P450 2C9 (Homo sapiens, UniProt P11712)
Chain of Cytochrome P450 2C9 (P11712 whole entry): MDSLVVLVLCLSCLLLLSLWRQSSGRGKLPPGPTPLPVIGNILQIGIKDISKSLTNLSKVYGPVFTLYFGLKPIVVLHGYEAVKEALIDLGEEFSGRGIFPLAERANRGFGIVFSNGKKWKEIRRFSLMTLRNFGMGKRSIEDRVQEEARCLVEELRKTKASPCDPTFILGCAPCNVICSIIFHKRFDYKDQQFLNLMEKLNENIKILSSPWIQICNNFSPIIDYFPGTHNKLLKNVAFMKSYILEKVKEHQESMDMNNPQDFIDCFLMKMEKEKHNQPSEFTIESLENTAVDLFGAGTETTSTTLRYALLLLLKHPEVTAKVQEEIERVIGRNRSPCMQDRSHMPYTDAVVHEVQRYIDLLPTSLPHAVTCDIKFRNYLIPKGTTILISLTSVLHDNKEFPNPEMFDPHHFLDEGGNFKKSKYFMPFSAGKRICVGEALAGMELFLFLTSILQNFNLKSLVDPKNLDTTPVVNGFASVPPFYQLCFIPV

Cytochrome P450 3A4 [5] = molecular target: T2, Cytochrome P450 3A4 (Homo sapiens, UniProt P08684)
T2 sequence (P08684 whole entry): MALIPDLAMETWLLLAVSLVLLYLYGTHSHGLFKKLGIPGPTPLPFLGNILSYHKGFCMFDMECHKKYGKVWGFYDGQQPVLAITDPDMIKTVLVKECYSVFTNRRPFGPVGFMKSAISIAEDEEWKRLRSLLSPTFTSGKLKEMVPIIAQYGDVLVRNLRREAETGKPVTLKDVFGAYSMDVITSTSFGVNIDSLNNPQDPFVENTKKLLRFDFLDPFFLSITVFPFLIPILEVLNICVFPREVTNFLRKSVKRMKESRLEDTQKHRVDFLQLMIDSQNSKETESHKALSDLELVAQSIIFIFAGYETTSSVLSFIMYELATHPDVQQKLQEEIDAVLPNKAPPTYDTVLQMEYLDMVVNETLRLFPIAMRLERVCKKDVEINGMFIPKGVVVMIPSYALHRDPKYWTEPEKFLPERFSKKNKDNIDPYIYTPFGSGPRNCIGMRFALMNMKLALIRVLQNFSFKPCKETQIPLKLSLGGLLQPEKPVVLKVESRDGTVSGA

Cytochrome P450 2C19 = Cytochrome P450 2C19 (Homo sapiens, UniProt P33261); experiment: Cytochrome panel assay with activity outcomes. Panel member name: p450-cyp2c19 Compounds with AC50 equal or less than 10 uM are considered active; format: functional; conditions: read-out: AC50
Chain of Cytochrome P450 2C19 (P33261 whole entry): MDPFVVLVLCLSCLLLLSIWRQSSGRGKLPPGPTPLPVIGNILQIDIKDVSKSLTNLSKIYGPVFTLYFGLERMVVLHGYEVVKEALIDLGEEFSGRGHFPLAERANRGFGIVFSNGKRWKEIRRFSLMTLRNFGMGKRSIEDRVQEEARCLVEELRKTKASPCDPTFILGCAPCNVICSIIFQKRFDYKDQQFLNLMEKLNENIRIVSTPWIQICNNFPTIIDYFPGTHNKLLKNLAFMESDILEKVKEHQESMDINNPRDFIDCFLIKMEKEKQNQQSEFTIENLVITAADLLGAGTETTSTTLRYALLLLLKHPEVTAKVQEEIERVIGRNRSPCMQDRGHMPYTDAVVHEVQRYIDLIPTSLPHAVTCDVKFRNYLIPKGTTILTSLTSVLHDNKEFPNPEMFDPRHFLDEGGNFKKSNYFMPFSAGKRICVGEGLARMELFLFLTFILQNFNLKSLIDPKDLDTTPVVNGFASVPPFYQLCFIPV

[6] = molecular target: T3, Adenosylmethionine-8-amino-7-oxononanoate aminotransferase (Mycobacterium tuberculosis, UniProt P9WQ81); experiment: Mycobacterium tuberculosis BioA enzyme inhibitor Measured in Biochemical System Using Plate Reader - 2163-02_Inhibitor_Dose_CherryPick_Activity.; format: functional, Mycobacterium tuberculosis UT205
T3 sequence (P9WQ81 whole entry): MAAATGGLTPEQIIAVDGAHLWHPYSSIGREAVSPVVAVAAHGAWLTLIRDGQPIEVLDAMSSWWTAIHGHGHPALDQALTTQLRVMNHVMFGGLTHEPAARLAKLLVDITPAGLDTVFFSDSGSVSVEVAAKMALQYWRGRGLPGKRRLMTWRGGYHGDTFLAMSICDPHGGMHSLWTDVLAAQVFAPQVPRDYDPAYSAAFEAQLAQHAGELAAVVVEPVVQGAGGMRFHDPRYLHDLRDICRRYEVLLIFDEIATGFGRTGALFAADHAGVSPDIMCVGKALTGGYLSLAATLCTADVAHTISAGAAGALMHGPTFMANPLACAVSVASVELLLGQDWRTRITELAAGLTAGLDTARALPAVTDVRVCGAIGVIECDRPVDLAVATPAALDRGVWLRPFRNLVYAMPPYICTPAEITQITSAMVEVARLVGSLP

Cytochrome P450 1A2 = molecular target: T4, Cytochrome P450 1A2 (Homo sapiens, UniProt P05177);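 note: PubChem cytochrome P450 panel assay, CYP1A2 panel member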
T4 sequence (P05177 whole entry): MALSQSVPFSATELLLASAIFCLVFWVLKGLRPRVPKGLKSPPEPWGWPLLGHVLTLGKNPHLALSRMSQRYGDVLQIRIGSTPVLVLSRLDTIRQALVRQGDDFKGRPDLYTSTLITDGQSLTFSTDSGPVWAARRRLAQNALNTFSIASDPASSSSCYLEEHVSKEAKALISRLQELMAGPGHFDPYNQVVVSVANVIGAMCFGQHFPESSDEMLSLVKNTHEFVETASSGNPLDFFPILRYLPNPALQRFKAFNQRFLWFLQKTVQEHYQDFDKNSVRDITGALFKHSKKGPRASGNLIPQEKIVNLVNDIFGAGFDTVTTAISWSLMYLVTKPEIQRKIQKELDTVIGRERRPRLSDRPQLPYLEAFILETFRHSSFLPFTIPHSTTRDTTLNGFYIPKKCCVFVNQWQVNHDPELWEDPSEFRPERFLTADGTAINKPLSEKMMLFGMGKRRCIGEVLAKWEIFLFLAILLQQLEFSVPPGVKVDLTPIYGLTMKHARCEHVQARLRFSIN

[7] = Vero E6 cell cytotoxicity, dose response, cytotoxicity control for non-replicating M. tuberculosis project, secondary assay (AID 492998); format: functional, VeroE6; conditions: Vero C1008
[8] = NIH3T3 cell viability loss – ATP luminescence, mouse fibroblasts, counter-screen, dose response (AID 2010); format: functional, cell-based;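 note: cells exposed to compound for about 90 hours before reading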
[9] = THP-1 cell cytotoxicity, dose response, cytotoxicity control for non-replicating M. tuberculosis project (AID 489025); format: functional
cells [10] = format: functional
[11] = Trypanosoma cruzi growth suppression in host cells – NIH3T3 host cells, beta-gal luminescence, confirmation (AID 2044); format: functional, cell-based;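 note: intracellular parasites grown in NIH/3T3 mouse fibroblasts as host cells; luminescent beta-galactosidase reporter signal from transgenic T. cruzi replicating inside host cells; inhibitors lower the luminescence signal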
[12] = molecular target: Photoreceptor-specific nuclear receptor (Homo sapiens, UniProt Q9Y5X4); format: functional, cell-based;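 note: CHO-S cells with Gal4-NCOR and VP16-NR2E3 two-hybrid luciferase reporter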
Chain of Photoreceptor-specific nuclear receptor (Q9Y5X4 whole entry, the tested form may be a part): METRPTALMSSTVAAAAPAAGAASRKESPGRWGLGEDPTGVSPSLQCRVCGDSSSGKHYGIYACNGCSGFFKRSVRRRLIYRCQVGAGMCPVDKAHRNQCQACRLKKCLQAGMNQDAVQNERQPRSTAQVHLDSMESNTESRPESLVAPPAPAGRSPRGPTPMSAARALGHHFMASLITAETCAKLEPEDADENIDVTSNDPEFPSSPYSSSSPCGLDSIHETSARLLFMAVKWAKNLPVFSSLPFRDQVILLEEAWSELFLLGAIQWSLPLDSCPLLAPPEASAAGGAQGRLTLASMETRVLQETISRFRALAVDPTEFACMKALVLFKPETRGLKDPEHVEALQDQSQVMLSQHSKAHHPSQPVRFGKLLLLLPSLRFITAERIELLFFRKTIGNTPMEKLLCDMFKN

Escherichia coli = experiment: microbe, parasite or virus in culture
[13] = molecular target: T5, Microphthalmia-associated transcription factor (Homo sapiens, UniProt O75030); experiment: reducers of TRPM1 reporter luminescence, concentration series – cell-based, SK-MEL-5, cherry-picked, set 3, MITF inhibitor project, dose response (AID 493073); format: functional;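 note: SK-MEL-5 melanoma cells with luciferase driven by the MITF target TRPM1 promoter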
T5 sequence (O75030 whole entry): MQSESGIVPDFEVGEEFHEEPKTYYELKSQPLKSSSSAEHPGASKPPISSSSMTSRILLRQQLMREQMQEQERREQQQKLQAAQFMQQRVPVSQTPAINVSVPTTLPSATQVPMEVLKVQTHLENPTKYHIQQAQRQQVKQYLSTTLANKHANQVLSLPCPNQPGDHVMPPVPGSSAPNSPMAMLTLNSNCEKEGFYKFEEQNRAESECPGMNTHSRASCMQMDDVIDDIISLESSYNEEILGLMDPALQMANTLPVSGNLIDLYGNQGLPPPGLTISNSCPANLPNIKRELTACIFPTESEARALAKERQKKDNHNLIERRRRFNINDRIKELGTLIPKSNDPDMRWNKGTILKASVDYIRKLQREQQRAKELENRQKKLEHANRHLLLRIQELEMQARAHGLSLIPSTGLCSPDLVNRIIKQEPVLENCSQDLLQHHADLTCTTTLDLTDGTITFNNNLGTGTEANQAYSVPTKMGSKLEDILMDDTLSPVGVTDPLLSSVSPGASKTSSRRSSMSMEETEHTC

[14] = HEK-293T viability loss after treatment – luminescence, T-cell screen hits, cytotoxicity control for TCR NF-kB inhibitor project, dose response (AID 489026); format: functional, cell-based;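 note: cells exposed to compound about 14 hours before the viability readout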
[15] = molecular target: Induced myeloid leukemia cell differentiation protein Mcl-1 (Homo sapiens, UniProt Q07820); format: functional
Prothrombin = Prothrombin (Bos taurus, UniProt P00735); experiment: thrombin protease inhibitors – biochemical, fluorescence polarization, uHTS hits, dose response (AID 602369); format: functional
[16] = molecular target: 26S proteasome non-ATPase regulatory subunit 14 (Homo sapiens, UniProt O00487); experiment: inhibition of proteasome subunit RPN11 – biochemical, fluorescence polarization, uHTS hits, confirmation (AID 602368); format: functional
Chain of 26S proteasome non-ATPase regulatory subunit 14 (O00487 whole entry): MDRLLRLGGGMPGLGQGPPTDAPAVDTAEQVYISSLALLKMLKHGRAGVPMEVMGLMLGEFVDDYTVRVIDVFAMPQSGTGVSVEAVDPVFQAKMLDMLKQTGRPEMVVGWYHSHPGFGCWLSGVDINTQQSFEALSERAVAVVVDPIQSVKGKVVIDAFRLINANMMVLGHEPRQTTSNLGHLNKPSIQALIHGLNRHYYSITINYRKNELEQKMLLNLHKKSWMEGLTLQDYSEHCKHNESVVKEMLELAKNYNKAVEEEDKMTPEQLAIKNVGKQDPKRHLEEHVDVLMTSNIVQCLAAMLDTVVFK

[17] = molecular target: 72 kDa type IV collagenase (Homo sapiens, UniProt P08253); experiment: Dose Response validation of uHTS RPN11 inhibitor hits using a MMP-2 Fluorescence assay.; format: functional
Chain of 72 kDa type IV collagenase (P08253 whole entry): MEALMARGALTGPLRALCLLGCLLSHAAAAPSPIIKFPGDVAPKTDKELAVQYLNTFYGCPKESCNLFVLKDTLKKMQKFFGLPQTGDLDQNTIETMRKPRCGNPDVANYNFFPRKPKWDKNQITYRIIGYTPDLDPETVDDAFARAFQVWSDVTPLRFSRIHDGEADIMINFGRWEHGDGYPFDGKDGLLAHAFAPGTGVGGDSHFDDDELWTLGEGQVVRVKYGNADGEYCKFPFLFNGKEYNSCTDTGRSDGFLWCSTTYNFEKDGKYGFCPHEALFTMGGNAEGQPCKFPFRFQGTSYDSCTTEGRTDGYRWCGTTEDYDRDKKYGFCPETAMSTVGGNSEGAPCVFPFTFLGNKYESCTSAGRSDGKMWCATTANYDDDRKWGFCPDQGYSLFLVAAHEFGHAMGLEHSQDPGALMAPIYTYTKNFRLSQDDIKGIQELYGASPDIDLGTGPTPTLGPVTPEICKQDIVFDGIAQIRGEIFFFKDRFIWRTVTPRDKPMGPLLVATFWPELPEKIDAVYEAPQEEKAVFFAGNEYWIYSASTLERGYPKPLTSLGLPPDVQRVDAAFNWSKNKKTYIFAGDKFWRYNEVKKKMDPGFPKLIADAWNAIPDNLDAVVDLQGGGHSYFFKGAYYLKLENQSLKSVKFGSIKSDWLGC

Vero = experiment: cells; format: functional, cell-based; conditions: Chlorocebus sabaeus
[18] = viability of uninfected HEp-2 cells – cell-based, HTS, cytotoxicity control for RSV inhibitor project, dose response (AID 2410); format: functional; conditions: human respiratory syncytial virus
[19] = molecular target: Glucose-6-phosphate 1-dehydrogenase (Homo sapiens, UniProt P11413); experiment: inhibition of Homo sapiens G6PD, dose series – biochemical, fluorescence, selectivity assay for P. falciparum G6PD inhibitor project, dose response (AID 504792); format: functional
Cytochrome P450 3A4 [20] = molecular target: T2, Cytochrome P450 3A4; conditions: Potency
Large T antigen = Large T antigen (Simian virus 40, UniProt P03070); format: functional, Betapolyomavirus macacae;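 note: Confirmatory-stage PubChem screen for compounds that inhibit SV40 T antigen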

Chain of Voltage-gated inwardly rectifying potassium channel KCNH2 (Q12809 whole entry): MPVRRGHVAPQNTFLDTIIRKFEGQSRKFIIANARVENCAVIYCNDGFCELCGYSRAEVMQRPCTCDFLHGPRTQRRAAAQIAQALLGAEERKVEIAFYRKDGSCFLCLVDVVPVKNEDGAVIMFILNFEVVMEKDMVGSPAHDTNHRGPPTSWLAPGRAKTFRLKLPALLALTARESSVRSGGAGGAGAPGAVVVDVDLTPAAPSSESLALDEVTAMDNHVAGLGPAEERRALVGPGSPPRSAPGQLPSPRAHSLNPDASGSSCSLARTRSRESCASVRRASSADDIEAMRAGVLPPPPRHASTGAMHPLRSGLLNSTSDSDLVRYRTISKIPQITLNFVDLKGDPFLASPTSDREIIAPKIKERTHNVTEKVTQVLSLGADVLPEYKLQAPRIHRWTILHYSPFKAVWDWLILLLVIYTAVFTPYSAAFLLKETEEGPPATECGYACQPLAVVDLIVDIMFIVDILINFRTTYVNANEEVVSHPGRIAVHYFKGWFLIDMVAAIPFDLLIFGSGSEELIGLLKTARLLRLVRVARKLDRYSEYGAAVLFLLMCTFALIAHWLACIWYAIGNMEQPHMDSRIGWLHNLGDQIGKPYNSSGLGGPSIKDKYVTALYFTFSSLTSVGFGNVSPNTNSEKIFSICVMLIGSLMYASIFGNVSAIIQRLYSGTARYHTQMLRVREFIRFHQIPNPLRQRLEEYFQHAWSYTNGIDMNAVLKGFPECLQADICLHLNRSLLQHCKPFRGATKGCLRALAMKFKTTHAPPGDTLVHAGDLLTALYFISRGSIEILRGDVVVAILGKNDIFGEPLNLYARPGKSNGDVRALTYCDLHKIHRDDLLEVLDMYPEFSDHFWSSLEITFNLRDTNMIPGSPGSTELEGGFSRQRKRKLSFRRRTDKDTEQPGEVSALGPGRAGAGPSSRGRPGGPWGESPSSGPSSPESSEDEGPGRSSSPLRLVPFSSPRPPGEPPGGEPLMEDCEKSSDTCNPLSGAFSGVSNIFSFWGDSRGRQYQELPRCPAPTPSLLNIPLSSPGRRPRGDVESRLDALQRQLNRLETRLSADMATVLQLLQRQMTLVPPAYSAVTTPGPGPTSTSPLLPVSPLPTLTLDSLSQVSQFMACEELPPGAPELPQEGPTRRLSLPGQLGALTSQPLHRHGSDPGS

SMILES: c1ccc2c(N3CCNCC3)cccc2c1
- AC50 [1]: 35.5 µM (inconclusive)

SMILES: O=C(Nc1nc(-c2ccccn2)cs1)c1cc(Cl)ccc1[N+](=O)[O-]
- IC50 [2]: 5.37 µM (active)
- EC50 (cells [3]): > 350 µM (not active)
- EC50 (Beta-galactosidase): > 40 µM (inactive)
- AC50 (INS1): 1.06 µM (active)
- EC50 (cells [4]): 9.68 µM (active)

SMILES: CC(C(=O)OCC(=O)c1cccc([N+](=O)[O-])c1)N1C(=O)C2C3C=CC(C3)C2C1=O (configuration not stated)
- IC50 [2]: > 40 µM (not active)
- EC50 (Beta-galactosidase): > 40 µM (inactive)

SMILES: COc1ccc(C(=O)Nc2ccc(F)cc2F)cc1OC
- AC50 (Cytochrome P450 2C9): inconclusive
- AC50 (Cytochrome P450 3A4 [5]): 25.1 µM (inconclusive)
- AC50 (Cytochrome P450 2C19): 39.8 µM (inconclusive)

SMILES: COC(=O)c1c(C(=O)OC)c(-c2ccccc2)n2c1C[S+]([O-])C2 (configuration not stated)
- AC50 [6]: 4.67 µM (active)

SMILES: Cn1cccc1C(=O)C(=O)Nc1cccc(Cl)c1Cl
- AC50 (Cytochrome P450 2C9): inconclusive

SMILES: COC(=O)C1=C(C)N(Cc2ccccc2)C(=NCC(C)C)N[C@H]1c1cccc(F)c1
- IC50 [2]: > 40 µM (not active)
- EC50 (Beta-galactosidase): > 40 µM (inactive)

SMILES: O=c1c(-c2ccc(Cl)cc2)nc2cnc(N3CCOCC3)nc2n1-c1ccccc1
- AC50 (Cytochrome P450 2C9): inconclusive
- AC50 (Cytochrome P450 1A2): 2 µM (inconclusive)

SMILES: CCN1CCN(c2ccc(S(=O)(=O)N3CCCCC3)cc2NC(=O)c2ccc([N+](=O)[O-])o2)CC1
- CC50 [7]: 16.7 µM (active)
- EC50 [8]: 23.8 µM (active)
- CC50 [9]: 19.1 µM (active)
- IC50 (cells [10]): 12.8 µM (active)
- EC50 [11]: 0.741 µM (active)
- AC50 (INS1): 3.27 µM (active)

SMILES: CCOc1ccc(CCNC(=O)c2cccnc2N2CCCC2)cc1OCC
- IC50 [2]: > 40 µM (not active)
- EC50 (Beta-galactosidase): > 40 µM (inactive)

SMILES: CCCCCCc1ccc(-c2ccc(C#N)cc2)cc1
- AC50 [1]: 6.31 µM (inconclusive)

SMILES: COc1ccc(OC)c(NC(=O)CSc2nnnn2-c2ccc3c(c2)OCO3)c1
- IC50 [12]: 0.24 µM (active)

SMILES: O=S(=O)(NC1CCCCC1)c1ccc(Cl)s1
- AC50 (Escherichia coli): 115 µM (active)

SMILES: N=C1N=C(N)c2cc3ccccc3cc21
- AC50 [1]: 28.2 µM (inconclusive)

SMILES: C=CCn1c(NC(=O)c2ccccc2)nc2ccccc21
- CC50 [7]: 17.7 µM (active)
- IC50 (cells [10]): 0.68 µM (active)

SMILES: CC(Oc1ccc2c(-c3ccccc3)cc(=O)oc2c1)C(=O)NCCCN1CCOCC1 (configuration not stated)
- AC50 (Escherichia coli): 62.1 µM (active)

SMILES: Cc1nc2nc(SCC(=O)N3CCOCC3)nn2c(C)c1Cc1c(F)cccc1Cl
- AC50 [6]: 0.217 µM (active)

SMILES: CCC(Sc1nc(C)cc(=O)[nH]1)C(=O)Nc1sc2c(c1C#N)CCCC2 (configuration not stated)
- IC50 [12]: 5.4 µM (active)

SMILES: N#C/C(=C\c1ccc(OCc2ccc(C(=O)O)cc2)cc1)C(=O)N1CCOCC1
- AC50 [13]: 1.19 µM (active)
- IC50 [14]: > 80 µM (inactive)

SMILES: CCOC(=O)c1c(C)[n+](-c2ccc(C)cc2)c(CC)c2cc(OC)c(OC)cc12
- EC50 [8]: > 60 µM (not active)
- AC50 [6]: 4.21 µM (active)
- EC50 [11]: 0.292 µM (active)

SMILES: Cc1ccc(NC(=O)C2CCN(S(=O)(=O)c3c(C)n[nH]c3C)CC2)nc1
- AC50 (Cytochrome P450 2C9): inconclusive
- AC50 (Cytochrome P450 2C19): 39.8 µM (inconclusive)

SMILES: CS(=O)(=O)C1=NSC2=NC(=O)/C(=C\c3cccn3-c3ccccc3Cl)C(=N)N21
- IC50 [15]: 4.35 µM (active)
- IC50 (Prothrombin): 52.6 µM (active)
- IC50 [16]: 30 µM (active)
- IC50 [17]: > 100 µM (inactive)

SMILES: O=c1c2cccnc2[nH]c(=S)n1CCCN1CCN(c2ccccc2F)CC1
- IC50 (Vero): 24.6 µM (active)

SMILES: CCOC(=O)c1c(N/C=C(\C#N)c2nc(-c3ccc(OC(C)=O)cc3)cs2)sc2c1CCC2
- AC50 (Escherichia coli): 12.3 µM (active)

SMILES: C=CCNc1ccccc1S(=O)(=O)NCc1ccccc1
- AC50 (Escherichia coli): > 150 µM (inactive)

SMILES: COC(=O)C[C@@H]1C[C@@H]2c3cc(NC(=O)c4cccnc4)ccc3O[C@@H]2[C@@H](CO)O1
- AC50 [6]: 13.6 µM (active)

SMILES: CCc1ccc(OCC(=O)N/N=C/c2cc([N+](=O)[O-])ccc2N2CCOCC2)cc1
- CC50 [18]: > 50 µM (active)
- IC50 [19]: > 80 µM (inactive)

SMILES: O=c1onc2n1-c1cc(Br)ccc1OC2
- AC50 (Cytochrome P450 3A4 [5]): 20 µM (inconclusive)
- AC50 [1]: 5.62 µM (inconclusive)

SMILES: COc1ccc(C(=O)c2ccc(O)cc2)c(O)c1O [2,3,4'-TRIHYDROXY-4-METHOXYBENZOPHENONE]
- AC50 (Cytochrome P450 3A4 [20]): 25.1 µM (inconclusive)

SMILES: O=C(O)/C=C/c1ccc(O)c(O)c1 [CAFFEIC ACID]
- AC50 (Cytochrome P450 3A4 [20]): 25.1 µM (inconclusive)
- AC50 [1]: 2.51 µM (inconclusive)
- IC50 (Large T antigen): 7.3 µM (active)
